What was measured:
[1] = test system: metastatic (KHOS/NP cell line derived) osteosarcoma OOC; experiment: Metastatic osteosarcoma OOC, luciferase luminescence (cancer cell number and viability); assay type: cell-based, human; conditions: 12 μM
Description: (§1) Drug treatment experiments recapitulating the patient treatment regimens and the patient plasma concentration of 12 μM of linsitinib were then carried out on the nonmetastatic and metastatic TE-ES and OS models. FIGS. 44 and 45 are graphs illustrating non-metastatic (U2-OS cell line derived, FIG. 44) and metastatic (KHOS/NP cell line derived, FIG. 45) osteosarcoma OOCs exposed to linsitinib (12 μM) according to the drug treatment regimen outlined. Luminescence as a function of cancer cell number and viability was measured (mean±s.e.m., n=6 for day 3, and n=3 for day 7 and 21, biologically independent per group). Significance was determined by unpaired two-tailed Student's t test of treatment group at specific day with respective control; *P<0.05; **P<0.01; ***P<0.001. Tissue engineered bone tumor models: Using an established protocol, expanded MSCs were seeded into the bone matrix scaffolds (4 mm×4 mm×1 mm) at a concentration of 10^6 cells per scaffold, using 40 μL of medium. The cells were allowed to attach for 2 hours, and then supplemented with additional mesenchymal stem cell medium overnight. The following day, osteogenic differentiation of the seeded cells was initiated by addition of low glucose DMEM supplemented with 1 μM dexamethasone (Sigma-Aldrich), 10 mM β-glycerophosphate (SigmaAldrich), and 50 μM L-ascorbic acid-2-phosphate (Sigma Aldrich). Each scaffold was incubated in 4 mL of osteogenic media, with media changes three times a week, for 3 weeks, allowing for the MSCs to differentiate into functional, maturing osteoblasts. Two weeks following the initiation of osteogenic differentiation, aggregates of tumor cells were prepared as described previously. Briefly, 0.3×10^6 cells were used to form ES aggregates and 0.5×10^6 cells were used to form OS aggregates. […] Cell viability: Cancer cell viability was measured for GFP-Luciferase labelled cancer cells using ONE-Glo luciferase substrate that was prepared according to manufacturer's protocol (Promega). […] Cardiac cell viability was assessed through the Pierce LDH Cytotoxicity Assay Kit (Thermo Fisher Scientific). […]

human cardiac OOC = experiment: Cardiac OOC calcium transients, isoproterenol response after linsitinib exposure; assay type: cell-based; conditions: tissues exposed to linsitinib, then 1 μM isoproterenol
Description: Isoproterenol response: Samples were loaded with Fluo-4, AM, cell permeant (Invitrogen) in RPMI Medium 1630 supplemented with B27 for 30 min at 37° C. […] Videos were analysed in MATLAB using a custom script that calculated the temporal changes in calcium fluorescence intensity. Each frame was normalized to a baseline background region chosen by the user to give baseline-corrected changes in minimum and maximum fluorescence values for each frame. The temporal changes in fluorescence intensity were presented in calcium transient traces from which the measurements were obtained. The calcium transient timing was determined as the peak-to-peak values of two successive beats as defined by the peak maxima.
Calcium transient traces were also analyzed 10 minutes after exposure to 1 μM isoproterenol hydrochloride, diluted in RPMI Medium 1630 supplemented with B27™.

ES model = experiment: Immunohistochemical Ki67 staining and TUNEL assay of the ES model; assay type: cell-based, human; conditions: ES model after linsitinib treatment
Text: To assess apoptosis, paraffin embedded tissue sections were first deparaffinized with CitriSolv, rehydrated with graded series of ethanol washes, and then stained with a Click-iT® TUNEL Alexa Fluor® imaging assay (Thermo Fisher Scientific).

TE-ES and TE-OS models = experiment: Linsitinib titration on TE-ES and TE-OS bone tumor models, luminescence as cancer cell viability; assay type: cell-based, human; conditions: 21-day treatment cycle
Description: The cells were allowed to attach for 2 hours, and then supplemented with additional mesenchymal stem cell medium overnight. The following day, osteogenic differentiation of the seeded cells was initiated by addition of low glucose DMEM supplemented with 1 μM dexamethasone (Sigma-Aldrich), 10 mM β-glycerophosphate (SigmaAldrich), and 50 μM L-ascorbic acid-2-phosphate (Sigma Aldrich). Each scaffold was incubated in 4 mL of osteogenic media, with media changes three times a week, for 3 weeks, allowing for the MSCs to differentiate into functional, maturing osteoblasts. Two weeks following the initiation of osteogenic differentiation, aggregates of tumor cells were prepared as described previously. Briefly, 0.3×10^6 cells were used to form ES aggregates and 0.5×10^6 cells were used to form OS aggregates. After 1 week of culture, the primary bone tumor aggregates were infused into the differentiated osteoblastseeded bone scaffolds (3 aggregates per scaffold, placed apart of each other). […] Cell viability: Cancer cell viability was measured for GFP-Luciferase labelled cancer cells using ONE-Glo luciferase substrate that was prepared according to manufacturer's protocol (Promega). […] Cardiac cell viability was assessed through the Pierce LDH Cytotoxicity Assay Kit (Thermo Fisher Scientific). […]

[2] = test system: non-metastatic (U2-OS cell line derived) osteosarcoma OOC; experiment: Non-metastatic osteosarcoma OOC, luciferase luminescence (cancer cell number and viability); assay type: cell-based, human; conditions: 12 μM
Description: as §1

`C[C@]1(O)C[C@@H](c2nc(-c3ccc4ccc(-c5ccccc5)nc4c3)c3c(N)nccn32)C1` [linsitinib, Linsitinib (OSI-906)] was tested, and the “luminescence (cancer cell number and viability) vs control” value (“luminescence … vs control” below) ([1]; after 3 days) was “significant drug response”, the drug efficacy ([1]; by day 7) was “stopped being effective” and the course of tumor ([1]; day 7 to D21) was “rapidly expand before stabilizing by D21”. For the same compound, the “inotropic response to isoproterenol” value (human cardiac OOC) was “inotropic responses were not observed”, the “proarrhythmic events in calcium transients” value (human cardiac OOC) was “proarrhthymic events” and the “apoptosis by TUNEL assay” value (ES model) was “increases in apoptosis”. For the same compound, the “proliferation via Ki67-staining” value (ES model) was “reduced proliferation”, the “luminescence signal as indicator of cancer cell viability” value (TE-ES and TE-OS models; 12 μM, ES and OS models) was “significant responses” and the “luminescence signal as indicator of cancer cell viability, titration” value (TE-ES and TE-OS models; linsitinib titration) was “dose response”. For the same compound, the “course of treated cancer cell population” value ([2]; after 3 weeks) was “no longer expanding”, the “luminescence … vs control” value ([2]; after 3 weeks of drug treatment) was “significant response” and the “luminescence … vs control” value ([2]; after 3 days) was “no significant response”.

From patent US12529022B2, “Human organ-on-chip models for predictive screening” (The Trustees of Columbia University in the City of New York, priority 2018, dated 2026)
